# Measurements: US9511143B2, “Aqueous compositions comprising arbekacin” (Meiji Seika Pharma Co., Ltd., priority 2011, dated 2016)
# Key:
# P. aeruginosa MSC17707 = experiment: Experimental pneumonia caused by Pseudomonas aeruginosa in neutropenic mice, inhalation therapy; assay type: in vivo; details: for viable cell counts in the lung in comparison to the non-treatment control group: all the dose levels; for Number of intrapulmonary viable cells: 5 min inhalation 2 h after infection, count 20 h after infection, neutropenic mice, mean ± SD
# Description: The therapeutic effect of arbekacin inhalation on experimental pneumonia in neutropenic mice, caused by P. aeruginosa, was compared with the therapeutic effect of amikacin and tobramycin.
# Cyclophosphamide (Sigma-Aldrich Co.) was dissolved in physiological saline. Four to five week-old Crlj:CD1(ICR) male mice were immunosuppressed by intraperitoneal injection of 150 and 100 mg/kg of cyclophosphamide solution 4 days and 1 day before infection, respectively. Thereafter, pulmonary infection was induced by intranasal inoculation of amikacin- and tobramycin-resistant P. aeruginosa having the aac(6)-lae encoding an aminoglycoside modifying enzyme. The antibiotics dissolved in saline were administered to each mouse using an electronic vibrating membrane nebulizer (eFlow®, PARI Pharma GmbH, spray flow rate: approximately 0.5 ml/min) two hours after the infection, and viable cells per lung were counted 20 hours after the infection. As for the doses of arbekacin, three levels were set at 3, 10 and 30 mg/ml, and the respective doses of amikacin and tobramycin were at three levels of 10, 30, and 100 mg/ml. The inhalation duration was five minutes. Meanwhile, physiological saline was administered to a non-treatment control group.
# guinea pigs = system: guinea pigs; parameters: species or system guinea pig (male Hartley strain); details: guinea pig, in vivo
# Description: A guinea-pig cough induction model was used to investigate differences in cough induction between the sulfate and hydrochloride forms of arbekacin. The tested substances were commercially available arbekacin sulfate (ABK—H2SO4) and arbekacin hydrochloride (ABK—HCl) that was prepared from arbekacin free base according to the method described in Example 2. The concentration of dosing solutions was set to be 25 mg/ml. In addition, physiological saline was used as a negative control agent whereas citric acid (30 mg/ml) was used as a positive control agent.
# Male Hartley strain guinea pigs were subjected to the experiment, with 10 animals per group. […] Cough was detected on the basis of the following indicators: observation of symptoms, analysis of a respiration pattern in the soma-side by a double-flow plethysmograph method using a multi-functional respiration measuring device (Win Pulmos-I, M-I-P-S Corporation), and pressure changes in head-side and soma-side chambers measured by a pressure transducer (blood pressure monitoring kit, Japan Becton, Dickinson and Company). The case, in which a motion of coughing in the symptom observation was noted together with typical changes in the pressure in the head-side and soma-side chambers and in the respiration pattern of the soma side at the time of coughing, was determined to be a cough reflex. […] Then, the occurrence of cough reflex was counted. […]
"number of occurrence of cough reflex / cough induction, comparison between groups (guinea pigs)",SMILES,viable cell counts in the lung in comparison to the non-treatment control group (P. aeruginosa MSC17707),Number of intrapulmonary viable cells (P. aeruginosa MSC17707; level of drug 10 mg/ml) [log10 CFU/lung],Number of intrapulmonary viable cells (P. aeruginosa MSC17707; level of drug 30 mg/ml) [log10 CFU/lung],Number of intrapulmonary viable cells (P. aeruginosa MSC17707; level of drug 100 mg/ml) [log10 CFU/lung],Number of intrapulmonary viable cells (P. aeruginosa MSC17707; level of drug 3 mg/ml) [log10 CFU/lung],therapeutic effect compared to amikacin and tobramycin (P. aeruginosa MSC17707; same dosage (10 or 30 mg/ml))
,"NCC[C@H](O)C(=O)N[C@@H]1C[C@H](N)[C@@H](O[C@H]2O[C@H](CN)[C@@H](O)[C@H](O)[C@H]2O)[C@H](O)[C@H]1O[C@H]1O[C@H](CO)[C@@H](O)[C@H](N)[C@H]1O [Amikacin, amikacin]",significantly decreased,5.65 ± 1.55,4.46 ± 1.68,2.65 ± 1.74,,
,"NCC[C@H](O)C(=O)N[C@@H]1C[C@H](N)[C@@H](O[C@H]2O[C@H](CN)CC[C@H]2N)[C@H](O)[C@H]1O[C@H]1O[C@H](CO)[C@@H](O)[C@H](N)[C@H]1O [Arbekacin, arbekacin]",significantly decreased,2.20 ± 0.99,1.98 ± 0.83,,4.07 ± 2.18,significantly superior
significantly higher,"O=C(O)CC(O)(CC(=O)O)C(=O)O [Citric Acid, citric acid]",,,,,,
,"NC[C@H]1O[C@H](O[C@H]2[C@H](O)[C@@H](O[C@H]3O[C@H](CO)[C@@H](O)[C@H](N)[C@H]3O)[C@H](N)C[C@@H]2N)[C@H](N)C[C@@H]1O [Tobramycin, tobramycin]",significantly decreased,5.74 ± 1.57,3.48 ± 1.85,3.53 ± 1.88,,
